# Patent US7645610B2, “Hepatocyte precursor cell lines” (Massachusetts Institute of Technology, priority 2002, dated 2010)
# How the values were obtained:
# Assay type in all cases: cell-based, rat
# Lig-1 cells [1] = assay: Colony formation efficiency, Lig-1
# Lig-2 cells = assay: Colony formation efficiency, Lig-2
# Lig-3 cells [2] = assay: Colony formation efficiency, Lig-3
# Lig-4 cells = assay: Colony formation efficiency, Lig-4
# Lig-6 cells = assay: Colony formation efficiency, Lig-6
# Lig-7 cells = assay: Colony formation efficiency, Lig-7
# Lig-8 cells [3] = assay: Colony formation efficiency, Lig-8
# Lig-9 cells [4] = assay: Colony formation efficiency, Lig-9
# Lig-13 cells [5] = assay: Colony formation efficiency, Lig-13
# Lig-14 cells = assay: Colony formation efficiency, Lig-14
# Lig-15 cells = assay: Colony formation efficiency, Lig-15
# Xs-derived cell lines = assay: Colony formation efficiency, Xs-derived lines as a group; details: n=8
# Source text: (§1) There was a marked difference in the cell kinetics properties of early passage conventional lines (Lig-1 to -3 in Table 1) and Xs-derived lines (Lig-4 to -15 in Table 1). […] The estimated mean increase in colony formation efficiency for Xs-derived cell lines in Xs-supplemented medium was 11-fold (n=8), ranging from a 10% increase to a 40-fold increase (Lig-13 in Table 1; p<0.0001). The growth of conventional cell lines was unaffected by Xs even when the Xs concentration was doubled (data not shown). [table]
# conventional cell lines = assay: Growth of conventional cell lines with Xs; details: even when the Xs concentration was doubled (data not shown)
# Source text: as §1, with “shown).” for “shown). [table]”
# Lig-9 cells [6] = assay: Fc(t) assay for asymmetric cell kinetics, Lig-9
# Experimental: To initiate the assay, 100 cells were plated in 75-cm^2 flasks. After a 16-hour growth period, pairs of new daughter cells were identified under the microscope, and their positions marked for serial examination. Thereafter, the marked microcolonies were examined at roughly ⅓ GT intervals for at least 2 generations. At each examination, the fraction of cells that divided during the previous interval was calculated as described (Sherley et al., 1995a). The estimated cell GT of examined lines was determined simultaneously as described (Sherley et al., 1995ab).
# A previously described serial colony formation analyses (the “Fc[t] assay”; Sherley et al., 1995a) was used to quantify the degree of asymmetric cell kinetics by Xs-derived cell lines. The Fc(t) assay quantifies the accumulation rate of cells in micro-colonies examined by serial phase microscopy at intervals of less than one GT from the 2-cell stage (Sherley et al., 1995a). Fc(t) is calculated by summing the fractions of dividing cells determined in each interval and dividing by the total number of GTs examined. When cells divide with symmetric kinetics, the value of Fc(t) approaches 1.0, regardless of the length of the examination period. For asymmetric kinetics, in which one non-dividing daughter is produced at each cell division, Fc(t) is a declining flnction that approaches […] with increasing exam time. […]
# Lig-8 cells [7] = assay: Daughter pair analysis (DPA), Lig-8; details: Xs added, 16% in the absence of Xs, n=58 pairs
# Experimental: (§2) Into 10-cm diameter culture dishes, an estimated 1750 cells were plated in DMEM-10% dFBS, supplemented at the Xs concentration used for derivation, and cultured for 16 hours. Medium was then replaced with either Xs-free medium or medium containing 100 μM Xs, and cells were cultured for an additional 48 h (GT=60 h). Bromo-5-deoxyuridine (BrdU) was then added to the cultures to a concentration of 5 μM for 5 hours. Detection of incorporated BrdU was performed using primary antibody Bu1-75 (Harlan), and a biotinylated secondary antibody (Vector Laboratories) with avidin-fluorescein visualization. Nuclei were detected by staining with 0.5 μg/ml DAPI (Molecular Probes). Images were captured using a Nikon TE300 microscope, Orca camera, and Openlab software (Improvision). The assay is called a “daughter pair analysis” (DPA). To perform the DPA, cells were plated in Xs-containing medium at microcolony density. After allowing 4 to 5 hours for cell adherence, parallel cultures were replaced with fresh medium that was either Xs-supplemented or Xs-free. After allowing time for cell divisions to produce “daughter pairs”, the cells were cultured for 4 hours with the thymidine analogue bromodeoxyuridine (BrdU). Cells were then fixed and evaluated for BrdU incorporation by in situ immunofluorescence.
# Lig-13 cells [8] = assay: Daughter pair analysis (DPA), Lig-13; details: independent of Xs concentration
# Experimental: as §2
# Lig-8 cells [9] = assay: Differentiation marker expression, Xs-free vs Xs-supplemented, Lig-8; parameters: key: −: no expression detected; +/−: weak expression; +: expression detected; !: increased expression in Xs-free conditions; *: no increased expression in Xs-free conditions
# Lig-13 cells [10] = assay: Differentiation marker expression, Xs-free vs Xs-supplemented, Lig-13; parameters: key: −: no expression detected; +/−: weak expression; +: expression detected; !: increased expression in Xs-free conditions; *: no increased expression in Xs-free conditions
# Experimental: To prepare cell lysates, cells were cultured until 95% confluent. After washing once with ice cold PBS, the cells were solubilized on ice in ice-cold lysis buffer (RIPA buffer; Hinds et al., 1987). The cell lysates were clarified by centrifugation at 13,000 rpm (Eppendorf™ microfuge) for 30 minutes at 4°0 C. and stored at −70°0 C. until further analysis. Soluble protein in lysates was quantified using the Bio-Rad DC™ assay. Twenty micrograms of cell lysates or 25 μl of culture medium samples were separated by SDS-PAGE (8-12% polyacrylamide) and analyzed for specific proteins by the following immunoblot procedure. Electrophoresed proteins were transferred to Hybond ECL membranes in Tris-Glycine-Methanol buffer (25 mM Tris-HCl, pH 7.5, 190 mM glycine, 20% methanol) for 1 hour at 100 volts at room temperature. Membranes were then stained with Ponceau S (0.5%) to verify uniform protein transfer and then blocked with Tris-buffered saline, 5% non-fat dried milk, 0.1% Tween-20 at room temperature for 1 hour. Following three 10-minute washes at room temperature in Tris-buffered saline, 0.1% Tween-20, the membranes were incubated with the specific primary antibodies diluted appropriately in Tris-buffered saline, 1% milk, 0.1% Tween-20 for 12-15 hours at 4° C. For albumin detection, membranes were incubated with an anti-albumin-HRP antibody (EY Laboratories) for 1 hour at room temperature. After removal of the unbound antibodies with three 10-minute washes in Tris-buffered saline-0.1% Tween-20, the membranes (except for albumin detection) were incubated with the anti-goat-HRP (1:2000) or anti-mouse HRP (1:5000) for 1 hour at room temperature. After three 10-minute washes with Tris-buffered saline-0.1% Tween-20, specifically bound HRP-conjugated antibodies were detected using the Amersham Enhanced Chemiluminescence Plus™ system. To re-probe a membrane with a different antibody, it was first incubated for 2.5 h in 0.1M glycine (pH 2.5) at room temperature. Immunohistochemical staining was performed with HRP-conjugated secondary antibodies as recommended by the supplier of primary detection antibodies. [table]
# Lig-1 cells [11] = assay: Differentiation marker expression, Xs-free conditions, Lig-1; parameters: key: −: no expression detected; +/−: weak expression; +: expression detected; !: increased expression in Xs-free conditions; *: no increased expression in Xs-free conditions; details: in situ immunofluorescence, confluent growth arrest in 1% serum 1-2 weeks
# Lig-3 cells [12] = assay: Differentiation marker expression, Xs-free conditions, Lig-3; parameters: key: −: no expression detected; +/−: weak expression; +: expression detected; !: increased expression in Xs-free conditions; *: no increased expression in Xs-free conditions; details: in situ immunofluorescence, confluent growth arrest in 1% serum 1-2 weeks
# [13] = 50 μM xanthosine, 200 cells per well, 14 days
# [14] = colony formation efficiency, 50 μM xanthosine vs Xs-free
# [15] = in situ immunofluorescence, confluent growth arrest in 1% serum 1-2 weeks
smiles,measurement,setting,value
"O=c1[nH]c(=O)c2ncn([C@@H]3O[C@H](CO)[C@@H](O)[C@H]3O)c2[nH]1 [Xs, Xanthosine]",Colony formation efficiency Xs+ (Mean % ± SD; n = 6),Lig-1 cells [1]; [13],9.8 ± 2.2%
same,Xs+/Xs− Ratio,Lig-1 cells [1]; [14],0.9
same,Colony formation efficiency Xs+ (Mean % ± SD; n = 6),Lig-2 cells; [13],29 ± 3.7%
same,Xs+/Xs− Ratio,Lig-2 cells; [14],1.0
same,Colony formation efficiency Xs+ (Mean % ± SD; n = 6),Lig-3 cells [2]; [13],18 ± 3.7%
same,Xs+/Xs− Ratio,Lig-3 cells [2]; [14],1.0
same,Colony formation efficiency Xs+ (Mean % ± SD; n = 6),"Lig-4 cells; Lig-4 (derived in 400 μM Xs), 50 μM xanthosine, 200 cells per well, 14 days",8.0 ± 1.1%
same,Xs+/Xs− Ratio,"Lig-4 cells; Lig-4, colony formation efficiency, 50 μM xanthosine vs Xs-free",1.5
same,Colony formation efficiency Xs+ (Mean % ± SD; n = 6),"Lig-6 cells; Lig-6 (derived in 400 μM Xs), 50 μM xanthosine, 200 cells per well, 14 days",5.3 ± 1.8%
same,Xs+/Xs− Ratio,"Lig-6 cells; Lig-6, colony formation efficiency, 50 μM xanthosine vs Xs-free",1.4
same,Colony formation efficiency Xs+ (Mean % ± SD; n = 6),"Lig-7 cells; Lig-7 (derived in 400 μM Xs), 50 μM xanthosine, 200 cells per well, 14 days",6.7 ± 2.2%
same,Xs+/Xs− Ratio,"Lig-7 cells; Lig-7, colony formation efficiency, 50 μM xanthosine vs Xs-free",≧22
same,Colony formation efficiency Xs+ (Mean % ± SD; n = 6),"Lig-8 cells [3]; Lig-8 (derived in 400 μM Xs), 50 μM xanthosine, 200 cells per well, 14 days",22 ± 3.6%
same,Xs+/Xs− Ratio,"Lig-8 cells [3]; Lig-8, colony formation efficiency, 50 μM xanthosine vs Xs-free",17
same,Colony formation efficiency Xs+ (Mean % ± SD; n = 6),"Lig-9 cells [4]; Lig-9 (derived in 400 μM Xs), 50 μM xanthosine, 200 cells per well, 14 days",11 ± 2.6%
same,Xs+/Xs− Ratio,"Lig-9 cells [4]; Lig-9, colony formation efficiency, 50 μM xanthosine vs Xs-free",1.1
same,Colony formation efficiency Xs+ (Mean % ± SD; n = 6),"Lig-13 cells [5]; Lig-13 (derived in 200 μM Xs), 50 μM xanthosine, 200 cells per well, 14 days",12 ± 2.7%
same,Xs+/Xs− Ratio,"Lig-13 cells [5]; Lig-13, colony formation efficiency, 50 μM xanthosine vs Xs-free",40
same,increase in colony formation efficiency in Xs-supplemented medium,"Lig-13 cells [5]; Lig-13, p<0.0001",40 fold
same,Colony formation efficiency Xs+ (Mean % ± SD; n = 6),"Lig-14 cells; Lig-14 (derived in 200 μM Xs), 50 μM xanthosine, 200 cells per well, 14 days",0.4 ± 0.67%
same,Xs+/Xs− Ratio,"Lig-14 cells; Lig-14, colony formation efficiency, 50 μM xanthosine vs Xs-free",1.3
same,Colony formation efficiency Xs+ (Mean % ± SD; n = 6),"Lig-15 cells; Lig-15 (derived in 200 μM Xs), 50 μM xanthosine, 200 cells per well, 14 days",10 ± 1.6%
same,Xs+/Xs− Ratio,"Lig-15 cells; Lig-15, colony formation efficiency, 50 μM xanthosine vs Xs-free",5.3
same,estimated mean increase in colony formation efficiency in Xs-supplemented medium,Xs-derived cell lines,11 fold
same,growth of conventional cell lines with Xs,conventional cell lines,unaffected
same,effect of Xs on terminal division fraction,Lig-9 cells [6]; 100 μM Xs,did not significantly affect
same,Terminal Division Fraction,"Lig-9 cells [6]; Xs+, 2-cell microcolonies with no division in 5 days, Xs− 0.58",0.47
same,fraction of double-BrdU(+) daughter pairs,Lig-8 cells [7],76%
same,fraction of symmetric BrdU(+) daughter pairs,Lig-13 cells [8],76%
same,"Albumin (ALB) expression, change in Xs-free conditions",Lig-8 cells [9]; immunoblot,+!
same,"Cytokeratin 7 (CK7) expression, change in Xs-free conditions",Lig-8 cells [9]; immunoblot,+*
same,"α1-Antitrypsin (AAT) expression, change in Xs-free conditions",Lig-8 cells [9]; immunoblot,+!
same,"α-Fetoprotein (AFP) expression, change in Xs-free conditions",Lig-8 cells [9]; immunoblot,+!
same,"H.4 expression, change in Xs-free conditions",Lig-8 cells [9]; [15],+!
same,"Albumin (ALB) expression, change in Xs-free conditions",Lig-13 cells [10]; immunoblot,+*
same,"Cytokeratin 7 (CK7) expression, change in Xs-free conditions",Lig-13 cells [10]; immunoblot,+!
same,"α1-Antitrypsin (AAT) expression, change in Xs-free conditions",Lig-13 cells [10]; immunoblot,+/−*
same,"α-Fetoprotein (AFP) expression, change in Xs-free conditions",Lig-13 cells [10]; immunoblot,+*
same,"H.4 expression, change in Xs-free conditions",Lig-13 cells [10]; [15],+/−*
same,"H.4 expression, change in Xs-free conditions",Lig-1 cells [11],+*
same,"H.4 expression, change in Xs-free conditions",Lig-3 cells [12],+/−*
